How the values were obtained:
M. tuberculosis H37Rv = assay: Antimycobacterial activity against M. tuberculosis H37Rv; assay type: cell-based, Mycobacterium tuberculosis; settings: for inhibition at 50 µg/mL / inhibition at 20 µg/mL: Mycobacterium tuberculosis, H37RV; for inhibition at 50 µg/mL: read-out: % inhibition 50 μg mL^−1, M. tuberculosis H37Rv, 50 μg mL^−1; for inhibition at 20 µg/mL: read-out: % inhibition 20 μg mL^−1, M. tuberculosis H37Rv; for inhibition at 20 µg/mL / % inhibition 20 μg mL^−1: 20 μg mL^−1
A549 cells = assay: Cytotoxicity, MTT assay, A549 cells; assay type: cell-based, Human; settings: for IC50: Homo sapiens, A549, 72 h, read-out: IC50 A549; for Selectivity index A549: IC50(A549)/MIC M. tb.
Vero cells = assay: Cytotoxicity, MTT assay, Vero cells; assay type: cell-based, African green monkey; settings: IC50(Vero)/MIC M. tb.

Compound	inhibition at 50 µg/mL (M. tuberculosis H37Rv) [%]	inhibition at 20 µg/mL (M. tuberculosis H37Rv) [%]	also measured
4-Methyl-3-(((1-(4-(trifluoromethoxy)benzoyl)piperidin-4-yl)amino)methyl)-5,6,7,8-tetrahydroquinolin-2(1H)-one [6d10]	–	–	MIC (M. tuberculosis H37Rv; M. tuberculosis H37Rv, MIC90, average of three measurements): >50 µg/mL
Cc1[nH]c(=O)c(CNC(=O)c2ccc([N+](=O)[O-])s2)c2c1CCC2 [6a1, N-((1-Methyl-3-oxo-3,5,6,7-tetrahydro-2H-cyclopenta[c]pyridin-4-yl)methyl)-5-nitrothiophene-2-carboxamide]	53	–	–
Cc1[nH]c(=O)c(CNC(=O)c2ccc(F)nc2)c2c1CCC2 [6a2, 6-Fluoro-N-((1-methyl-3-oxo-3,5,6,7-tetrahydro-2H-cyclopenta[c]pyridin-4-yl)methyl)nicotinamide]	14	–	–
COc1cc(OC)cc(-c2ccc(C(=O)NCc3c4c(c(C)[nH]c3=O)CCCC4)cc2)c1 [6b6, 3′,5′-Dimethoxy-N-((1-methyl-3-oxo-2,3,5,6,7,8-hexahydroisoquinolin-4-yl)methyl)-[1,1′-biphenyl]-4-carboxamide]	–	–	IC50 (A549 cells): > 100 µg/mL; Selectivity index A549 (A549 cells): >33; Selectivity index Vero (Vero cells): >16
Cc1[nH]c(=O)c(CNC(=O)c2ccc(Cl)nc2)c2c1CCCC2 [6b24, 6-Chloro-N-((1-methyl-3-oxo-2,3,5,6,7,8-hexahydroisoquinolin-4-yl)methyl)nicotinamide]	–	98.3	–
Cc1[nH]c(=O)c(CNC(=O)c2ccc(Br)nc2)c2c1CCCC2 [6b25, 6-Bromo-N-((1-methyl-3-oxo-2,3,5,6,7,8-hexahydroisoquinolin-4-yl)methyl)nicotinamide]	–	98.9	–
Cc1[nH]c(=O)c(CNC(=O)c2ccc(F)nc2)c2c1CCCC2 [6b26, 6-Fluoro-N-((1-methyl-3-oxo-2,3,5,6,7,8-hexahydroisoquinolin-4-yl)methyl)nicotinamide]	–	94.1	IC50 (A549 cells): > 100 µg/mL; Selectivity index A549 (A549 cells): >63; Selectivity index Vero (Vero cells): >31
Cc1ccc(C(=O)NCc2c3c(c(C)[nH]c2=O)CCCC3)cn1 [6b27, 6-Methyl-N-((1-methyl-3-oxo-2,3,5,6,7,8-hexahydroisoquinolin-4-yl)methyl)nicotinamide]	–	98.6	–
Cc1[nH]c(=O)c(CNC(=O)c2ccc([N+](=O)[O-])nc2)c2c1CCCC2 [6b28, N-((1-Methyl-3-oxo-2,3,5,6,7,8-hexahydroisoquinolin-4-yl)methyl)-6-nitronicotinamide]	–	98.9	–
Cc1[nH]c(=O)c(CNC(=O)c2ccc([N+](=O)[O-])o2)c2c1CCCC2 [6b29, N-((1-Methyl-3-oxo-2,3,5,6,7,8-hexahydroisoquinolin-4-yl)methyl)-5-nitrofuran-2-carboxamide]	–	100	IC50 (A549 cells): > 100 µg/mL; Selectivity index A549 (A549 cells): >35; Selectivity index Vero (Vero cells): >17
Cc1[nH]c(=O)c(CNC(=O)c2cc([N+](=O)[O-])co2)c2c1CCCC2 [6b30, N-((1-Methyl-3-oxo-2,3,5,6,7,8-hexahydroisoquinolin-4-yl)methyl)-4-nitrofuran-2-carboxamide]	–	78.2	–
Cc1[nH]c(=O)c(CNC(=O)c2ccc(Br)o2)c2c1CCCC2 [6b31, 5-Bromo-N-((1-methyl-3-oxo-2,3,5,6,7,8-hexahydroisoquinolin-4-yl)methyl)furan-2-carboxamide]	–	97.7	–
Cc1[nH]c(=O)c(CNC(=O)c2ccc([N+](=O)[O-])s2)c2c1CCCC2 [6b32, N-((1-Methyl-3-oxo-2,3,5,6,7,8-hexahydroisoquinolin-4-yl)methyl)-5-nitrothiophene-2-carboxamide]	–	96.4	–
Cc1[nH]c(=O)c(CNC(=O)c2ccc(C(F)(F)F)o2)c2c1CCCC2 [6b33, N-((1-Methyl-3-oxo-2,3,5,6,7,8-hexahydroisoquinolin-4-yl)methyl)-5-(trifluoromethyl)furan-2-carboxamide]	–	98.3	IC50 (A549 cells): > 100 µg/mL; Selectivity index A549 (A549 cells): >50; Selectivity index Vero (Vero cells): >25
Cc1[nH]c(=O)c(CNC(=O)c2cn[nH]c2)c2c1CCCC2 [6b35, N-((1-Methyl-3-oxo-2,3,5,6,7,8-hexahydroisoquinolin-4-yl)methyl)-1H-pyrazole-4-carboxamide]	–	94.6	–
Cc1[nH]c(=O)c(CNC(=O)c2ccno2)c2c1CCCC2 [6b36, N-((1-Methyl-3-oxo-2,3,5,6,7,8-hexahydroisoquinolin-4-yl)methyl)isoxazole-5-carboxamide]	–	25.1	–
Cc1[nH]c(=O)c(CNC(=O)c2ccc(Br)nc2)c2c1CCCCC2 [6c1, 6-Bromo-N-((1-methyl-3-oxo-3,5,6,7,8,9-hexahydro-2H-cyclohepta[c]pyridin-4-yl)methyl)nicotinamide]	33	–	–
Cc1c2c([nH]c(=O)c1CNC(=O)c1ccc([N+](=O)[O-])s1)CCCC2 [6d5, N-((4-Methyl-2-oxo-1,2,5,6,7,8-hexahydroquinolin-3-yl)methyl)-5-nitrothiophene-2-carboxamide]	100	–	–
COc1cc(OC)cc(C(=O)NCc2c(C)c3c([nH]c2=O)CCCC3)c1 [6d6, 3,5-Dimethoxy-N-((4-methyl-2-oxo-1,2,5,6,7,8-hexahydroquinolin-3-yl)methyl)benzamide]	100	–	–

Compound	inhibition at 50 µg/mL (M. tuberculosis H37Rv) [%]	inhibition at 20 µg/mL (M. tuberculosis H37Rv) [%]	also measured
Cc1c2c([nH]c(=O)c1CNC(=O)c1ccc(C(F)(F)F)nc1Cl)CCCC2 [6d7, 2-Chloro-N-((4-methyl-2-oxo-1,2,5,6,7,8-hexahydroquinolin-3-yl)methyl)-6-(trifluoromethyl)nicotinamide]	99	–	–
Cc1c2c([nH]c(=O)c1CNC(=O)c1ccc(-c3ccc(C(F)(F)F)nc3)cc1)CCCC2 [6d9, N-((4-Methyl-2-oxo-1,2,5,6,7,8-hexahydroquinolin-3-yl)methyl)-4-(6-(trifluoromethyl)pyridin-3-yl)benzamide]	18	–	–
COc1cc(OC)cc(-c2ccc(C(=O)NCc3c(C)cc(C4CC4)[nH]c3=O)cc2)c1 [7a2, N-((6-Cyclopropyl-4-methyl-2-oxo-1,2-dihydropyridin-3-yl)methyl)-3′,5′-dimethoxy-[1,1′-biphenyl]-4-carboxamide]	–	21	–
COc1cc(OC)cc(-c2ccc(C(=O)NCc3c(C)cc(-c4ccccc4)[nH]c3=O)cc2)c1 [7b2, 3′,5′-Dimethoxy-N-((4-methyl-2-oxo-6-phenyl-1,2-dihydropyridin-3-yl)methyl)-[1,1′-biphenyl]-4-carboxamide]	–	33	–
Cc1cc(C)c(CNC(=O)c2ccc([N+](=O)[O-])o2)c(=O)[nH]1 [8a1, N-((4,6-Dimethyl-2-oxo-1,2-dihydropyridin-3-yl)methyl)-5-nitrofuran-2-carboxamide]	–	75.3	–
CCc1cc(CC)c(CNC(=O)c2ccc([N+](=O)[O-])o2)c(=O)[nH]1 [8a3, N-((4,6-Diethyl-2-oxo-1,2-dihydropyridin-3-yl)methyl)-5-nitrofuran-2-carboxamide]	–	98.1	–
Cc1cc(C)c(CNC(=O)c2ccc(C(F)(F)F)cc2)c(=O)[nH]1 [8a4, N-((4,6-Dimethyl-2-oxo-1,2-dihydropyridin-3-yl)methyl)-4-(trifluoromethyl)benzamide]	–	87.6	–
CCc1cc(CC)c(CNC(=O)c2ccc(C(F)(F)F)nc2)c(=O)[nH]1 [8a5, N-((4,6-Diethyl-2-oxo-1,2-dihydropyridin-3-yl)methyl)-6-(trifluoromethyl)nicotinamide]	–	94.4	–
Cc1c(CNC(=O)c2ccc(C(F)(F)F)nc2)c(=O)[nH]c2ccccc12 [9a1, N-((4-Methyl-2-oxo-1,2-dihydroquinolin-3-yl)methyl)-6-(trifluoromethyl)nicotinamide]	2	–	–
COc1cc(OC)cc(-c2ccc(C(=O)NCc3c(C)c4ccccc4[nH]c3=O)cc2)c1 [9a2, 3′,5′-Dimethoxy-N-((4-methyl-2-oxo-1,2-dihydroquinolin-3-yl)methyl)-[1,1′-biphenyl]-4-carboxamide]	15	–	–
Cc1c(CNC(=O)c2ccc(-c3ccc(C(F)(F)F)nc3)cc2)c(=O)[nH]c2ccccc12 [9a3, N-((4-Methyl-2-oxo-1,2-dihydroquinolin-3-yl)methyl)-4-(6-(trifluoromethyl)pyridin-3-yl)benzamide]	13	–	–
Cc1c(CNC(=O)c2cnc(C(F)(F)F)nc2)c(=O)[nH]c2ccccc12 [9a4, N-((4-Methyl-2-oxo-1,2-dihydroquinolin-3-yl)methyl)-2-(trifluoromethyl)pyrimidine-5-carboxamide]	3	–	–
Cc1[nH]c(=O)c(CNCc2ccc(C(F)(F)F)cc2)c2c1CCCC2 [10a1, 1-Methyl-4-(((4-(trifluoromethyl)benzyl)amino)methyl)-5,6,7,8-tetrahydroisoquinolin-3(2H)-one]	–	65.7	–
Cc1[nH]c(=O)c(CNS(=O)(=O)c2ccc(C(F)(F)F)nc2)c2c1CCCC2 [10a2, N-((1-Methyl-3-oxo-2,3,5,6,7,8-hexahydroisoquinolin-4-yl)methyl)-6-(trifluoromethyl)pyridine-3-sulfonamide]	–	92.7	–
Cc1[nH]c(=O)c(C(=O)Nc2ccc(C(F)(F)F)cc2)c2c1CCCC2 [10a4, 1-Methyl-3-oxo-N-(4-(trifluoromethyl)phenyl)-2,3,5,6,7,8-hexahydroisoquinoline-4-carboxamide]	–	36.8	–
Cc1[nH]c(=O)c(CNC(=O)Cc2ccc(C(F)(F)F)cc2)c2c1CCCC2 [10a5, N-((1-Methyl-3-oxo-2,3,5,6,7,8-hexahydroisoquinolin-4-yl)methyl)-2-(4-(trifluoromethyl)phenyl)acetamide]	–	99.3	–
NNC(=O)c1ccncc1 [Isoniazid, reference compound]	98.9	98.9	% inhibition 20 μg mL^−1 (M. tuberculosis H37Rv; M. tuberculosis H37Rv): 99.4%
N-((6-Ethyl-4-methyl-2-oxo-1,2-dihydropyridin-3-yl)methyl)-5-nitrofuran-2-carboxamide [8a2]	–	–	% inhibition 20 μg mL^−1 (M. tuberculosis H37Rv; M. tuberculosis H37Rv): 98.2%

From PMC9036655 (RSC Advances, 2021)
